These results are taken from publication PMC8306933 (Molecules, 2021).

Usually IC50 stands for the concentration that inhibits the measured activity by half.

Like-named read-outs stand apart in the source and are kept apart here.

In experiment [1] the target is T1, butyrylcholinesterase from equine serum (Equus caballus, UniProt P81908).
T1 construct: purchased Sigma-Aldrich (St. Louis, MO, USA); host or cells: equine serum
Put plainly: BChE inhibition (Ellman's method). In kind it is biochemical. From the text: (§1) Trizma hydrochloride (Tris-HCl) and bovine serum albumin (BSA) were obtained from Sigma–Aldrich (Steinheim, Germany). Deionized water was produced using a Milli-Q water purification system (Millipore, Bedford, MA, USA). Dulbecco’s Modified Eagle Medium (DMEM) was collected from Gibco (Japan), and fetal bovine serum (FBS) was also collected from Gibco (Waltham, MA, USA). Insulin and penicillin G/streptomycin were collected from Wako (Fujifilm Wako Pure Chemical Corporation, Osaka, Japan), the MTS kit was collected from Promega (Madison, WI, USA), and poly-2-hydroxyethyl methacrylate was collected from Sigma-Aldrich (Taufkirchen, Germany).
(§2) The cholinesterase inhibitory (AChE/BChE) properties were ascertained based on Ellman’s method, as previously described. […] In the AChE inhibitory assay, 25 µL of sample solution (0–1 mM) along with 50 µL of buffer B (50 mM Tris-HCl, pH 8 containing 0.1% BSA), 125 µL of DTNB (3 mM), and 25 µL of 0.05 U/mL AChE were incubated at 37 °C for 10 min. After incubation, 25 µL of acetylthiocholine iodide (5 mM) as AChE substrate was incorporated to the solution. The BChE activity was determined following the same protocol using 25 µL of 5 mM S-butyrylthiocholine chloride as BChE substrate and 0.05 U/mL BChE as enzyme. […] The percentage of inhibition was calculated and the results were expressed as IC50 (µM).

Experiment [2] addresses T2, α-amylase from porcine pancreas (Sus scrofa, UniProt P00690).
T2 construct: purchased Sigma-Aldrich (St. Louis, MO, USA); host or cells: porcine pancreas
T2 sequence (P00690 16-511): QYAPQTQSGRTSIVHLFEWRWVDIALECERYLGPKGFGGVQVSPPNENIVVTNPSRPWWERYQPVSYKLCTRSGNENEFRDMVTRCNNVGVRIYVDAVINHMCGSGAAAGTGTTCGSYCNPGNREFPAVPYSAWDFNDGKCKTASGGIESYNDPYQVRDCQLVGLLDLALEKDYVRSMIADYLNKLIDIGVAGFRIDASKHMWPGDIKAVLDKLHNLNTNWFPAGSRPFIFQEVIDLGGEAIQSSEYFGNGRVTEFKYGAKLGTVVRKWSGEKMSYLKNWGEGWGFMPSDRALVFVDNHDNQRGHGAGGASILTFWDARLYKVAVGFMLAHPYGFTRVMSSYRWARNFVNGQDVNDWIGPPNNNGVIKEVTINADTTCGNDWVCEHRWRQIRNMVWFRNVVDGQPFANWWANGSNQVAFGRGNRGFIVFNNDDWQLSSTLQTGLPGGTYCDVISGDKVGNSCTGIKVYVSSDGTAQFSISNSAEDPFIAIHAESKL
Put plainly: biochemical. In kind it is biochemical.
Source text: as §1
α-Amylase inhibitory activity was determined following the starch-iodine method with some modifications. A 1% starch solution was prepared by 1 g of starch in 10 mL of distilled water following gentle boiling and cooling into 100 mL. A reaction mixture, 25 μL sample (0–1 mM) and 50 μL α-amylase (5 U/mL) in phosphate buffer, was incubated at 37 °C for 10 min. Afterwards, the starch (100 μL, 1% w/v) solution was added to the mixture and incubated again at 37 °C for 10 min. […] After adding the iodine/iodide solution, based on the colour change, the absorbance was monitored at 630 nm for 10 min. […] The percentage of inhibition was calculated and results were expressed as IC50 (µM).

Experiment [3] has as its target T3, Acetylcholinesterase from electric eel (Electrophorus electricus, UniProt O42275).
T3 construct: purchased Sigma-Aldrich (St. Louis, MO, USA) type VI-s; host or cells: electric eel
Put plainly: biochemical. Format: biochemical.
Source text: as §1, §2

For experiment [4], the system named is Hs578T cells. Put plainly: Tumor-sphere formation assay, Hs578T. The following applies: in vitro tumor-sphere formation. Format: cell-based, human. How it is done:
(§3) The human TNBC cell lines Hs578T and MDA-MB-231 were obtained from the American Type Culture Collection and cultured in Dulbecco’s Modified Eagle Medium (DMEM) supplemented with fetal bovine serum (FBS) (10% v/v), insulin (Hs578T cell only), and penicillin G/streptomycin 1% (v/v) at 37 °C under 5% CO2. The absence of culture contamination by Mycoplasma species was confirmed before the experiments.
(§4) Three-dimensional or tumor-sphere culture is a recently introduced in vitro technique which maintains a physiological environment which closely resembles that of in vivo conditions. This technique has now been widely used for the screening of anticancer moieties. In vitro tumor-sphere formation assay was performed following a reported protocol. Briefly, approximately 3 × 10^3 cells were resuspended in a poly-2-hydroxyethyl methacrylate coated 6-well plate containing a sphere-forming medium with or without tested compounds and incubated for one week. The number of tumor spheres were counted, and the diameter of each tumor sphere was measured.

Experiment [5] concerns MDA-MB-231 cells. Put plainly: Tumor-sphere formation assay, MDA-MB-231. In kind it is cell-based, human. The settings on record: in vitro tumor-sphere formation. How it is done: as §3, §4
The test system of experiment [6] is Hs578T cells. Put plainly: Transwell cell migration assay, Hs578T. Format: cell-based, human. The following applies: at IC50; vs DMSO control. How it is done:
as §3
(§5) The effects of the selected compounds on breast cancer cell migration were evaluated in transwell chambers according to a published protocol. Briefly, the Hs578T and MDA-MB-231 cells were treated with the tested compounds for 24 h, trypsinized, and washed twice with serum-free medium. Approximately 3 × 10^4 pretreated cells, suspended in 100 μL of the serum-free medium, were seeded to the upper chamber. The lower chambers were filled with approximately 500 μL of DMEM medium with 10% FBS and incubated for 12 h. After incubation, the cells from the upper surface were wiped off with cotton swabs, while the migrated cells on the opposite side of the transwell were washed twice with PBS, fixed with 4% paraformaldehyde, and finally stained with crystal violet solution. After 2 washes with water (Milli Q), several microscopic fields were taken randomly, and the migrated cells were counted using ImageJ software.

Experiment [7] deals with MDA-MB-231 cells. Put plainly: Transwell cell migration assay, MDA-MB-231. Format: cell-based, human. The settings on record: at IC50; vs DMSO control. How it is done:
as §3, §5

The test system of experiment [8] is Hs578T cells. Put plainly: Cytotoxicity / cell viability (MTS assay), Hs578T. Format: cell-based. The following applies: for IC50: Homo sapiens, Hs-578T, TNBC cell line Hs578T, read-out: IC50 cytotoxic activity Hs578T; for reduction of the number of TNBC cells Hs578T: after three days of treatment at IC50. How it is done: as §3
(§6) The activity of the selected compounds on breast cancer cell viability were determined employing the MTS assay. Briefly, 5 × 10^3 cells were seeded in each well of a 96-well plate for 24 h, and growth medium containing different compounds was added and incubated in different periods. A total of 20 µL of the MTS kit was added to each well, and the cells were incubated for 2 h. After incubation, the absorbance was measured at 490 nm with an enzyme-linked immunosorbent assay microplate reader (BioTek Instruments, USA). The absorbance value is directly proportional to the number of living cells.
(In general: Formazan colour is commonly taken as a measure of viable cells.)

Experiment [9] deals with MDA-MB-231 cells. Put plainly: Cytotoxicity / cell viability (MTS assay), MDA-MB-231. Format: cell-based. The settings on record: for IC50: Homo sapiens, TNBC cell line MDA-MB-231, read-out: IC50 cytotoxic activity MDA-MB-231; for reduction of the number of TNBC cells MDA-MB-231: after three days of treatment at IC50. Here is the method: as §3, §6
Setting [10] is: mean ± SD (n = 3), tested 0–1 mM, read-out: IC50 BChE.
The mark [11] stands for this setting: mean ± SD (n = 3), mammalian α-amylase, read-out: IC50 α-Amylase.
[12] abbreviates: mean ± SD (n = 3), tested 0–1 mM, read-out: IC50 AChE.
The mark [13] stands for this setting: mean ± SD (n = 3), mammalian α-amylase.
The mark [14] stands for this setting: mean ± SD (n = 3), tested 0–1 mM.

T3 sequence (O42275 24-633): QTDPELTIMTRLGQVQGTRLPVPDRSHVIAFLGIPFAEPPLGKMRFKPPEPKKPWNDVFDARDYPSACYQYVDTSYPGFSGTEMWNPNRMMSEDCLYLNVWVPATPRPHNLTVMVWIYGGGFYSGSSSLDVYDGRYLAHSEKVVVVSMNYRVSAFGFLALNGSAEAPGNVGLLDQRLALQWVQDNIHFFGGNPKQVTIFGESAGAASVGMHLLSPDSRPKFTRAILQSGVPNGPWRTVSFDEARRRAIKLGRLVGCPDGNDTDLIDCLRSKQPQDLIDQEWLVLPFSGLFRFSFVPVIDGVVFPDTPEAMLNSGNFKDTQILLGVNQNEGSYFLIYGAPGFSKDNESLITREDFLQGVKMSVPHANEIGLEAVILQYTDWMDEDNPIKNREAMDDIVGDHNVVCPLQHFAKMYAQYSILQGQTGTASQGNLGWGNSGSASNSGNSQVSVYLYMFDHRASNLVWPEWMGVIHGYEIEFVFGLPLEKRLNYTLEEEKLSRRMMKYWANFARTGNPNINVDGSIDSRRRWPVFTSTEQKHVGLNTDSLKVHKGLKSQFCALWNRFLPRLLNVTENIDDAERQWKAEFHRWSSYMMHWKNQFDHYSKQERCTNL
T1 sequence (P81908 whole entry): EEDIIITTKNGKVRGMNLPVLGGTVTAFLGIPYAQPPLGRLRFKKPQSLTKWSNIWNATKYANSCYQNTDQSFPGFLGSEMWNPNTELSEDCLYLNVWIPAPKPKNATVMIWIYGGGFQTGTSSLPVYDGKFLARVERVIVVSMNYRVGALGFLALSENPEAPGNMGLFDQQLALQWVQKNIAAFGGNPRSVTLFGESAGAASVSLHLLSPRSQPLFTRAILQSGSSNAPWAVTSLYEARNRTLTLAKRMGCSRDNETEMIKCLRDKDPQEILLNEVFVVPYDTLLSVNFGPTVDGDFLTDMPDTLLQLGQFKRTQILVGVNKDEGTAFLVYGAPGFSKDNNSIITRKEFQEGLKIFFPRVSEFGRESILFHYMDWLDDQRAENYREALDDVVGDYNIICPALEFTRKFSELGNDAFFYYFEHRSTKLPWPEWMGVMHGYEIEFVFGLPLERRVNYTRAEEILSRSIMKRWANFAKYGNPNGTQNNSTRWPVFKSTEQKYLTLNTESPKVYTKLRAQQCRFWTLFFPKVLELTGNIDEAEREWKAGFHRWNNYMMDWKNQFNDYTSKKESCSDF

For `COc1cc(/C=C/C(=O)O[C@H]2[C@H](O[C@@H]3O[C@@H](C)[C@H](O)[C@@H](O)[C@H]3O[C@@H]3O[C@H](CO)[C@@H](O)[C@H](O)[C@H]3O)[C@@H](O)[C@H](OCCc3ccc(O)c(O)c3)O[C@@H]2CO)ccc1O` [Compound 8, incanoside C], the IC50 in [1] (setting [10]) was > 1000 µM; in experiment [2] (setting [11]), 19.8 ± 0.5 µM; in [3] (setting [12]), 178 ± 11.3 µM.
As for `CC1OC(OC2C(O)C(OCCc3ccccc3)OC(CO)C2OC(=O)C=Cc2ccc(O)c(O)c2)C(O)C(O)C1O` (stereo not drawn) [Compound 5, jionoside C], the “tumor-sphere size and number, Hs578T” value in the experiment with Hs578T cells [4] is “reduced the cell size (Figure 5A,C) and the cell number significantly”. Also, the 50% inhibitory concentration (IC50) is > 1000 µM in experiment [1] (setting [10]); 24.9 ± 0.4 µM in [2] (setting [11]); 85.3 ± 2.4 µM in the experiment on Hs578T cells [8]; 160 ± 12.2 µM in experiment [3] (setting [12]); 96.5 ± 1.5 µM with MDA-MB-231 cells [9]. In the experiment with MDA-MB-231 cells [5], the “tumor-sphere size and number, MDA-MB-231” value was “reduced the cell size (Figure 5A,C) and the cell number significantly”. The “inhibition of migration of Hs578T cell” value in the experiment on Hs578T cells [6] worked out at 43%. Further, the “inhibition of migration of MDA-MB-231” value in the experiment with MDA-MB-231 cells [7] is listed as 37%. In addition, the “reduction of the number of TNBC cells Hs578T” value in the experiment with Hs578T cells [8] was found to be 42%. For the same compound, the “reduction of the number of TNBC cells MDA-MB-231” value in the experiment with MDA-MB-231 cells [9] amounted to 43%.
As to `CC1=CC(=O)CC(C)(C)[C@H]1CC[C@@H](C)O[C@@H]1O[C@H](CO)[C@@H](O)[C@H](O)[C@H]1O` [Compound 3, byzantionoside B], the half-inhibitory concentration (IC50) in [1] (setting [10]) was > 1000 µM; in [2] (setting [11]) it was 284 ± 13.2 µM; in the experiment with Hs578T cells [8], 94.7 ± 1.3 µM; in experiment [3] (setting [12]), > 1000 µM; in the experiment with MDA-MB-231 cells [9] it was 118 ± 3.3 µM. Besides, the “IC50 α-Amylase” value in experiment [2] (setting [13]) is “almost inactive”. The “inhibition of migration of Hs578T cell” value in the experiment on Hs578T cells [6] is recorded as 50%. The “inhibition of migration of MDA-MB-231” value in the experiment on MDA-MB-231 cells [7] worked out at 40%. Further, the “reduction of the number of TNBC cells Hs578T” value with Hs578T cells [8] amounted to 44%. The “IC50 AChE” value in experiment [3] (setting [14]) is “no inhibitory activity”. In the experiment on MDA-MB-231 cells [9], the “reduction of the number of TNBC cells MDA-MB-231” value is 48%.
Turning to `CC1=C(C(=O)O)C2CC(=O)c3cc(CC(C)O)c(OC4OC(CO)C(O)C(O)C4OC4OC(CO)C(O)C(O)C4O)c(O)c3C2(C)CC1` [Compound 2, (5R,10S,16R)-11,16-dihydroxy-12-O-β-D-glucopyranosyl-(1→2)-β-D-glucopyranosyl-17(15→16),18(4→3)-diabeo-4-carboxy-3,8,11,13-abietatetraene-7-one], the IC50 was > 1000 µM in [1], 64.6 ± 7.1 µM in [2] and 139 ± 7.2 µM in [3].
For the compound `COc1ccc(CCO[C@@H]2O[C@H](CO)[C@@H](OC(=O)/C=C/c3ccc(O)c(O)c3)[C@H](O[C@@H]3O[C@@H](C)[C@H](O)[C@@H](O)[C@H]3O)[C@H]2O)cc1O` [Compound 6, jionoside D], the IC50 is > 1000 µM in experiment [1] (setting [10]), 3.4 ± 0.2 µM in [2] (setting [11]) and > 1000 µM in experiment [3] (setting [12]). In experiment [3] (setting [14]), the “IC50 AChE” value is given as “no inhibitory activity”.
Turning to `CC1=C(CO)[C@@H]2CC(=O)c3cc(C[C@@H](C)O)c(O[C@@H]4O[C@@H](CO)C(O)[C@H](O)[C@@H]4O[C@@H]4O[C@H](CO)[C@@H](O)[C@H](O)[C@@H]4O)c(O)c3[C@@]2(C)CC1` (stereo partly drawn) [Compound 1, (5R,10S,16R)-11,16,19-trihydroxy-12-O-β-D-glucopyranosyl-(1→2)-β-D-glucopyranosyl-17(15→16),18(4→3)-diabeo-3,8,11,13-abietatetraene-7-one], the IC50 was > 1000 µM in [1]; 18.5 ± 0.6 µM in experiment [2]; 128 ± 2.2 µM in the experiment on Hs578T cells [8]; 191 ± 10.2 µM in [3]; 122 ± 1.2 µM in the experiment with MDA-MB-231 cells [9].
For `O=C(O)C[C@H]1CCC(=O)[C@@H]1C/C=C\CCO[C@@H]1O[C@H](COC(=O)/C=C/c2ccc(O)c(O)c2)[C@@H](O)[C@H](O)[C@H]1O` [Compound 4, 6′-O-caffeoyl-12-glucopyranosyloxyjasmonic acid], the IC50 is > 1000 µM in experiment [1] (setting [10]); 13 ± 1.3 µM in experiment [2] (setting [11]); 210 ± 5.1 µM in the experiment with Hs578T cells [8]; > 1000 µM in [3] (setting [12]); 199 ± 3.1 µM in the experiment with MDA-MB-231 cells [9]. Further, the “IC50 AChE” value in [3] (setting [14]) is “no inhibitory activity”.
As to `COc1ccc(CCO[C@@H]2O[C@H](CO)[C@@H](OC(=O)/C=C/c3ccc(O)c(O)c3)[C@H](O[C@@H]3O[C@@H](C)[C@H](O)[C@@H](O)[C@H]3O)[C@H]2O)cc1OC` [Compound 7, brachynoside], the values for the IC50 in experiment [1] (setting [10]), in [2] (setting [11]) and in [3] (setting [12]) were > 1000 µM, 221 ± 24.5 µM and > 1000 µM, respectively. Moreover, the “IC50 α-Amylase” value in experiment [2] (setting [13]) was “almost inactive”. Moreover, in [3] (setting [14]), the “IC50 AChE” value is on record as “no inhibitory activity”.
